Patent US20210393742A1, “LONG-ACTING INTERLEUKIN-15 RECEPTOR AGONIST IN COMBINATION WITH ANOTHER PHARMACOLOGICALLY ACTIVE AGENT” (Nektar Therapeutics, priority 2018, published 2021)

Key:
human PBMCs = experiment: Secreted granzyme B in PBMC culture media by ELISA (Example 6); assay type: cell-based; details: overnight, Conjugate 1 1 μg/ml, plate coated with hIgG 0.1 mg/ml
Method: Functional activation of human NK cells within a human peripheral blood mononuclear cells (PBMCs) preparation was induced in vitro. PBMCs from two donors were incubated overnight in the presence of (i) mono(methoxyPEG-N-butanamide)40 kD interleukin-15 (Conjugate 1) at a concentration of 1 μg/ml; (ii) on cell culture plastic that had been prior coated overnight with human total immunoglobulin G (hIgG) solution at a concentration of 0.1 mg/ml (iii) on cell culture plastic that had been prior coated overnight with human total immunoglobulin G (hIgG) solution at a concentration of 0.1 mg/ml and in the presence of Conjugate 1 at a concentration of 1 μg/ml; or (iv) on regular cell culture plastic.
After the incubation period, NK cell activation was measured with flow cytometry by measuring the increase of median fluorescence intensity (MFI) signal of CD69 (FIG. 9A) and CD107a (FIG. 9B) detecting antibodies on the surface of CD56+ human NK cells within the PBMCs. Functional activation of NK cells was assessed by calculating the fold-change in MFI when comparing control condition where the cells were exposed to neither hIgG nor Conjugate 1. […] Secreted granzyme B concentration also indicative of NK cell activation in the culture media at the end of the experiment was measured by ELISA (FIG. 9C).

NCI-N87 cells = experiment: Tumor growth inhibition in NCI-N87 gastric carcinoma model (Example 22); assay type: in vivo, mice; details: 25 days after treatment initiation; trastuzumab 3/1/1 mg/kg IV; Compound 1 0.3 mg/kg IV x3
Method: Tumor growth inhibition in inoculated mice was measured 25 days after treatment initiation. Results are provided graphically in FIG. 25.

[1] = tested on: STAT5 phosphorylation in KHYG-1 cells; experiment: Phosphorylation of STAT5 in KHYG-1 cells (Example 7); assay type: cell-based, human; details: 10 minutes
Method: KHYG-1 cells were cultured in RPMI-1640 medium supplemented with 20% FBS, 2 mM L-glutamine, and 20 ng/mL IL-2 (Complete growth medium) in a humidified incubator at 37° C. and 5% CO2.
One day prior to treatment with test compounds, cells were seeded at a density of 500,000 viable cells/ml in Complete growth medium and incubated overnight under normal growth conditions. On the day of the assay, KHYG-1 cells were washed 3 times with DPBS, resuspended in assay medium (RPMI-1640 medium supplemented with 20% FBS, 2 mM L-glutamine), and incubated for 4-5 hours at 37° C., 5% CO2. Cells were adjusted to the appropriate density (8×10^5 cells/mL) in assay medium and 50,000 cells/well were aliquoted into wells of a 96-well plate (View-Plate 96, Perkin-Elmer).
KHYG-1 cells were stimulated with IL-15 or a long-acting IL-15 receptor agonist (mono(mPEG-butanamide)IL-15) followed by incubation at 37° C., 5% CO2 for 10 minutes. Treated cells were lysed on ice.
Detection of phospho-STAT5 protein levels in cell lysates was performed using the Phospho(Tyr694)/Total STAT5a,b Assay Whole Cell Lysate kit (MSD product #K15163D). Relative light unit (RLU) signal corresponding to phosphor-STAT5 was collected using a Sector® Imager 2400 plate reader (MSD) with the results provided in FIG. 10A.

Daudi B cell lymphoma [2] = experiment: Daudi cell counts in bone marrow, low and high doses (Example 14); assay type: in vivo, mice; details: day 24, single agent
Method: SCID mice (N=6/group) were intravenously inoculated with 10 million Daudi cells on Day 0 and treated with a single dose of a lower or higher dose of daratumumab (0.05 mg/kg or 5 mg/kg IP, 14 days following Daudi cell inoculation) and two doses of either lower or higher dose mono(methoxyPEG-N-butanamide)interleukin-15 (compound 1) (0.03 mg/kg or 0.6 mg/kg intravenously, one dose at each of 14 and 21 days after inoculation). Mice were also treated with the single agent therapies: daratumumab (0.05 mg/kg or 5 mg/kg IP, 14 days following Daudi cell inoculation) or two doses of mono(methoxyPEG-N-butanamide)40 kD interleukin-15 (compound 1) (0.03 mg/kg or 0.6 mg/kg intravenously, 14 and 21 days after inoculation). Daudi cell numbers in the bone marrow were assessed three days following the second dose of mono(methoxyPEG-N-butanamide)40 kD interleukin-15 (day 24) by flow cytometry as shown in FIGS. 17A and 17B.

Daudi B cell lymphoma [3] = experiment: Survival in Daudi B cell lymphoma xenograft model, combination with rituximab (Example 1); assay type: in vivo, mice; details: after about 35 days; agonist 0.3 mg/kg, days 14 and 17
Method: At day 0, SCID mice were intravenously injected with 1×10^7 Daudi cells. The mice were divided into four groups. On days 14 and 17 post-Daudi cell injection, the groups were treated by injection as follows: Group 1: isotype control antibody, Group 2: 40 mg/kg IP rituximab, Group 3: 0.3 mg/kg mono(methoxyPEG-N-butanamide)40 kD interleukin-15 (a long-acting IL-15 receptor agonist), Group 4: 40 mg/kg IP rituximab and 0.3 mg/kg SC mono(methoxyPEG-N-butanamide)40 kD interleukin-15 (combination).
The survival rate was determined by measuring the onset of hind limb paralysis as a surrogate parameter.

[4] = tested on: human multiple myeloma RPMI-8226 cells; experiment: ADCC of daratumumab-coated target cells by primed human NK cells (Example 12); assay type: cell-based; details: NK cells primed with 300 ng/mL overnight; daratumumab 1 μg/mL; E:T 10:1, 3 hours
Method: Human NK cells were magnetically sorted from normal donor PBMCs using negative selection. NK cells were seeded in a 96-well U-bottom plate at a density of 80,000 cells/well (FIG. 15A) OR 400,000 cells/well (FIG. 15B). NK cells were stimulated with 300 ng/mL of a long-acting IL-15 receptor agonist (mono(mPEG-butanamide)IL-15) (+) or left unstimulated (−) in complete RPMI-1640 media supplemented with 10% fetal bovine serum (FBS) and 1% antibiotic/antimycotic overnight at 37° C. in 5% CO2.
The human multiple myeloma RPMI-8226 cells (ATCC #CCL-155) were washed in PBS and stained with 0.15 μM CFSE for 5 min at 37° C. The stimulated NK cells (effector cells) and the daratumumab-coated (+1 μg/mL) CFSE-labeled tumor cells (target cells) were concurrently co-cultured in an E:T ratio of 10:1 for 3 hours at 37° C. in 5% CO2. Following incubation, cells were washed in flow staining buffer, Fc-blocked for 15 min at 4° C., and surface-stained (CD45, CD56, CD3-fluorescently conjugated antibodies). The cells were washed in PBS and incubated in 7-aminoactinomycin (7-AAD) viability stain for 30 minutes at 4° C. before acquiring for flow cytometric analysis using a Fortessa (BD). The percentage of 7-AAD+ CFSE+ target cells from total cell population is the percentage for dead tumor cells.

Substance: mono(methoxyPEG-N-butanamide)40 kD interleukin-15 [Conjugate 1]
- Granzyme B concentration (human PBMCs): 56 pg/mL
- Granzyme B concentration fold-change relative to no stimulation control (human PBMCs): 4.1 fold
- tumor growth inhibition (NCI-N87 cells): no tumor growth inhibition
- phosphorylation of STAT5 [1]: dose-dependent phosphorylation of STAT5
- potency in STAT5 phosphorylation, fold less than IL-15 [1]: ~3 fold
- intra-bone marrow tumor cells depleted (Daudi B cell lymphoma [2]; high dose (daratumumab 5 mg/kg; compound 1 0.6 mg/kg)): 69%
- intra-bone marrow tumor cells depleted (Daudi B cell lymphoma [2]; low dose (daratumumab 0.05 mg/kg; compound 1 0.03 mg/kg)): 42%
- survival (Daudi B cell lymphoma [3]): 0%
- ADCC, % 7-AAD+ target cells [4]: enhance ADCC
